Measured values taken from US7763663B2, “Polysaccharide-containing block copolymer particles and uses thereof” (priority 2001, dated 2010).

Tested on: ear swelling
Conditions: conventional form, 200 mg dose (highest dosage used), topical, after 6 hours of exposure, croton oil
Description: Croton oil was applied to the left and right ears of five animals to cause inflammation. Two hours later, a nanoparticle preparation of Celebrex or conventional form of Celebrex® was applied topically to the left or right ear.

With `Cc1ccc(-c2cc(C(F)(F)F)nn2-c2ccc(S(N)(=O)=O)cc2)cc1` [Celebrex® delivered in conventional form] the “reduction in ear swelling” value was 60%.
